Reference: patent US11814444B2, “Cyclic polypeptides for PCSK9 inhibition” (Ra Pharmaceuticals, Inc., priority 2018, dated 2023)
Numbered stars: 1 amine (or outer) side, 2 acyl side, 3 side chain; on linkers, the order of the positions; unused ones are H or OH. Bridge positions count the residues as written; N and C are the ends. Square brackets hold non-standard residues; d marks the D form. Peptide text beside a SMILES is read from it. X3 = O=C([C@@H]1C[C@@H](SCc2ccc(C[*:3])cc2)CN1[*:1])[*:2]; Pyridine(2,6-diCH2) = c1cc(C[*:1])nc(C[*:2])c1; Trp(5-F) = N[C@@H](Cc1c[nH]c2ccc(F)cc12)C(=O)O; Trp(7-aza) = N[C@@H](Cc1c[nH]c2ncccc12)C(=O)O; 1Nal = N[C@@H](Cc1cccc2ccccc12)C(=O)O; mXylylene = c1cc(C[*:1])cc(C[*:2])c1; Hyp = O=C(O)[C@@H]1C[C@@H](O)CN1; NH(CH2)5NH = C(CCN[*:1])CCN[*:2]; 4Pal = N[C@@H](Cc1ccncc1)C(=O)O; NMeE = CN[C@@H](CCC(=O)O)C(=O)O; Aad = N[C@@H](CCCC(=O)O)C(=O)O; Pen = CC(C)(S)[C@H](N)C(=O)O; Tle = CC(C)(C)[C@H](N)C(=O)O; αMeV = CC(C)[C@](C)(N)C(=O)O; S5 = C=CCCC[C@](C)(N)C(=O)O; Iva = CC[C@](C)(N)C(=O)O; Nva = CCC[C@H](N)C(=O)O; Thp = NC1(C(=O)O)CCOCC1; Ac4c = NC1(C(=O)O)CCC1; X4 = C(CC[*:2])C[*:1]; Aib = CC(C)(N)C(=O)O; Mpa = O=C(O)CCS

How the values were obtained:
[1] = molecular target: human PCSK9 / human LDLR EGFa domain interaction (Homo sapiens, UniProt Q8NBP7); experiment: TR-FRET assay of inhibition of the PCSK9-LDLR protein-protein interaction; format: binding; conditions: 20 nM avitag-biotinylated human PCSK9, 20 nM his-tagged human LDLR EGFa domain, 2 hours, room temperature
Sequence of human PCSK9 / human LDLR EGFa domain interaction (Q8NBP7 153-692): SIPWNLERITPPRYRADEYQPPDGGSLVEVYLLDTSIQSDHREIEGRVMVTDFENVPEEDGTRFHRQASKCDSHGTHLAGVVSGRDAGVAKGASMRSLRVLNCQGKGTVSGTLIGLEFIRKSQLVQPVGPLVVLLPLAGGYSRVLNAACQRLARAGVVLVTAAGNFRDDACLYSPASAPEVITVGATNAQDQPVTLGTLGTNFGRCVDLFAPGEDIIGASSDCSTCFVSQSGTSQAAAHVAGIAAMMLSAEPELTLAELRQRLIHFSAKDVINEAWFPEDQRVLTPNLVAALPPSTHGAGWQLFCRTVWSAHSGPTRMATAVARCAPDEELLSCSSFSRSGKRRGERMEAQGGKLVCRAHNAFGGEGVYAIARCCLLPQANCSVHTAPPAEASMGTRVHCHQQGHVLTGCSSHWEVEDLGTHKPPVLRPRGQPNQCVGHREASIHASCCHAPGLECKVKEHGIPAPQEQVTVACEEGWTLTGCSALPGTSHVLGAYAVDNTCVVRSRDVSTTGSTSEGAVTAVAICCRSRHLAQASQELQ
Sequence of human PCSK9 / human LDLR EGFa domain interaction (Q8NBP7 31-152 partner limits assumed): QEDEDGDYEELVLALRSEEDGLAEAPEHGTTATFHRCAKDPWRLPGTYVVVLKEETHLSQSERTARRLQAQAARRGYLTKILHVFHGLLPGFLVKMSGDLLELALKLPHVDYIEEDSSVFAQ
Summary of the method: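 Compounds in dose-response are mixed with 20 nM human PCSK9 (avitag-biotinylated) and 20 nM his-tagged LDLR EGFa domain, plus 5 nM each streptavidin-Ulight and Eu-anti-6×His. After 2 h at room temperature in HEPES/NaCl/CaCl2 buffer with BSA and P20, TR-FRET is read and IC50 fitted (4-parameter).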

PCSK9 = PCSK9 (Homo sapiens, UniProt Q8NBP7); experiment: PCSK9 Alexa FRET Standard assay (displacement of AlexaFluor647 tagged cyclic peptide Reagent A); format: binding; conditions: 0.5 nM PCSK9, 20 nM AF cyclic peptide Reagent A
Sequence of PCSK9 (Q8NBP7 153-692): as the sequence (Q8NBP7 153-692) above
Description: A solution containing 1 nM biotinylated PCSK9+2.5 nM Lance Streptavidin Europium (Strep-Eu) was made in 50 mM HEPES pH 7.4, 0.15 M NaCl, 5 mM CaCl2), 0.01% BSA, and 0.01% Surfactant P20. A separate solution containing 40 nM of the AlexaFluor tagged cyclic peptide was made in the same buffer system. An Echo was used to transfer 0.750 ul of compound to an assay plate followed by the addition of 15 ul of PCSK9+Stept-Eu and 15 ul of AF peptide. The final assay volume was 30.750 ul containing 0.5 nM PCSK9, 1.25 nM Strep-Eu, and 20 nM AF cyclic peptide. The reaction was incubated at room temperature for at least two hours prior to fluorescence measurements using an Envision Multilabel Reader. IC50 values were determined by fitting data to a sigmoidal dose-response curve using nonlinear regression. Ki was then calculated from the IC50 and the KD of AF cyclic peptide. Counts (B-counts) of the europium-labeled PCSK9 were followed to observe if compounds were […]. A fall off of the B-counts likely indicated a false positive of inhibition. Data from this procedure was reported as “A=‘numerical value’ (nanomolar)”

| Structure (SMILES) | IC50 [1] [nM] | IC50 (PCSK9) [nM] |
| --- | --- | --- |
| CC(=O)N[C@H]1CCCCNC(=O)CCC[C@@H](C(N)=O)NC(=O)[C@H]([C@@H](C)O)NC(=O)[C@](C)(C(C)C)NC(=O)[C@H](Cc2ccc(O)cc2)NC(=O)[C@H](C)NC(=O)C(C)(C)NC(=O)[C@H](Cc2c[nH]c3ncccc23)NC(=O)[C@H]([C@@H](C)O)NC(=O)[C@@H]2C[C@@H]3CN2C(=O)[C@H](Cc2ccc(O)cc2)NC(=O)[C@@H](NC1=O)C(C)(C)SCc1ccc(cc1)CS3 [Compound 349] (Ac-K[Pen]Y[X3]T[Trp(7-aza)][Aib]AY[αMeV]T[Aad]-NH2; lactam 1-12; thioether 2-4) | 1 to 100 | 1 to 100 |
| CCC[C@@H]1NC(=O)[C@H](Cc2ccc(O)cc2)NC(=O)[C@H](C)NC(=O)[C@]2(C)CCC/C=C/CCC[C@](C)(NC1=O)C(=O)NCCCCCNC(=O)CCC[C@H](NC(C)=O)C(=O)N[C@@H](C(C)(C)C)C(=O)N[C@@H](Cc1ccc(O)cc1)C(=O)N1CCC[C@H]1C(=O)N[C@@H]([C@@H](C)O)C(=O)N[C@@H](Cc1cccc3ccccc13)C(=O)N2 [Compound 347] (Ac-[Aad][Tle]YPT[1Nal][S5]AY[Nva][S5]; linker 1-C via NH(CH2)5NH; staple (E) 7-11) | 100 to 1000 | 100 to 1000 |
| CC[C@]1(C)NC(=O)[C@H](Cc2c[nH]c3ncccc23)NC(=O)[C@H]([C@@H](C)O)NC(=O)[C@@H]2CCCN2C(=O)[C@H](Cc2ccc(O)cc2)NC(=O)[C@H](C(C)(C)C)NC(=O)[C@@H](NC(C)=O)CSCc2cccc(c2)CSC[C@@H](C(N)=O)NC(=O)[C@H]([C@@H](C)O)NC(=O)[C@](C)(C(C)C)NC(=O)[C@H](Cc2ccc(O)cc2)NC(=O)[C@H](C)NC1=O [Compound 182] (Ac-C[Tle]YPT[Trp(7-aza)][Iva]AY[αMeV]TC-NH2; linker 1-12 via mXylylene) | 21000 to 50000 | 1000 to 21000 |
| CC(=O)N[C@H]1CSCc2cccc(c2)CSC[C@@H](C(N)=O)NC(=O)[C@H]([C@@H](C)O)NC(=O)C(C)(C)NC(=O)[C@H](Cc2ccc(O)cc2)NC(=O)[C@H](C)NC(=O)C(C)(C)NC(=O)[C@H](Cc2c[nH]c3ncccc23)NC(=O)[C@H]([C@@H](C)O)NC(=O)[C@@H]2CCCN2C(=O)[C@H](Cc2ccc(O)cc2)NC(=O)[C@H](C(C)(C)C)NC1=O [Compound 179] (Ac-C[Tle]YPT[Trp(7-aza)][Aib]AY[Aib]TC-NH2; linker 1-12 via mXylylene) | 21000 to 50000 | 1000 to 21000 |
| CCC[C@@H]1NC(=O)[C@H](Cc2c[nH]c3ncccc23)NC(=O)[C@H]([C@@H](C)O)NC(=O)[C@@H]2CCCN2C(=O)[C@H](Cc2ccc(O)cc2)NC(=O)[C@H](C(C)(C)C)NC(=O)CCSCc2cccc(c2)CSC[C@@H](C(N)=O)NC(=O)[C@H]([C@@H](C)O)NC(=O)[C@H](CCC)NC(=O)[C@H](Cc2ccc(O)cc2)NC(=O)[C@H](CCC(=O)O)NC1=O [Compound 155] ([Mpa][Tle]YPT[Trp(7-aza)][Nva]EY[Nva]TC-NH2; linker 1-12 via mXylylene) | 1000 to 21000 | 1000 to 21000 |
| CC(=O)N[C@H]1CSCc2cccc(c2)CSC[C@@H](C(N)=O)NC(=O)[C@H]([C@@H](C)O)NC(=O)[C@](C)(C(C)C)NC(=O)[C@H](Cc2ccc(O)cc2)NC(=O)[C@H](C)NC(=O)C2(CCC2)NC(=O)[C@H](Cc2c[nH]c3ncccc23)NC(=O)[C@H]([C@@H](C)O)NC(=O)[C@@H]2CCCN2C(=O)[C@H](Cc2ccc(O)cc2)NC(=O)[C@H](C(C)(C)C)NC1=O [Compound 183] (Ac-C[Tle]YPT[Trp(7-aza)][Ac4c]AY[αMeV]TC-NH2; linker 1-12 via mXylylene) | 21000 to 50000 | 1000 to 21000 |
| CCC[C@@H]1NC(=O)[C@H](Cc2c[nH]c3ccc(F)cc23)NC(=O)[C@H]([C@@H](C)O)NC(=O)[C@H](Cc2c[nH]cn2)NC(=O)[C@H](Cc2ccc(O)cc2)NC(=O)[C@H](C(C)(C)C)NC(=O)CCSCc2cccc(c2)CSC[C@@H](C(N)=O)NC(=O)[C@H]([C@@H](C)O)NC(=O)[C@H](CCC)NC(=O)[C@H](Cc2ccc(O)cc2)NC(=O)[C@H](CCC(=O)O)NC1=O [Compound 263] ([Mpa][Tle]YHT[Trp(5-F)][Nva]EY[Nva]TC-NH2; linker 1-12 via mXylylene) | 100 to 1000 | 1000 to 21000 |
| CC(=O)N[C@H]1CSCc2cccc(c2)CSC[C@H](C(N)=O)NC(=O)[C@H]([C@@H](C)O)NC(=O)[C@](C)(C(C)C)NC(=O)[C@H](Cc2ccc(O)cc2)NC(=O)[C@H](C)NC(=O)C2(CCC2)NC(=O)[C@H](Cc2c[nH]c3ncccc23)NC(=O)[C@H]([C@@H](C)O)NC(=O)[C@@H]2C[C@@H]3CN2C(=O)[C@H](Cc2ccc(O)cc2)NC(=O)[C@H](NC1=O)[C@H](C)OCCCCO3 [Compound 343] (Ac-C[dT]Y[Hyp]T[Trp(7-aza)][Ac4c]AY[αMeV]T[dC]-NH2; linker 1-12 via mXylylene; linker 2-4 via X4) | 21000 to 50000 | 1000 to 21000 |
| CNC(=O)[C@H]1CSCc2cccc(c2)CSC[C@H](NC(C)=O)C(=O)N[C@@H](C(C)(C)C)C(=O)N[C@@H](Cc2ccc(O)cc2)C(=O)N2CCC[C@H]2C(=O)N[C@@H]([C@@H](C)O)C(=O)N[C@@H](Cc2c[nH]c3ncccc23)C(=O)NC(C)(C)C(=O)N[C@@H](C)C(=O)N[C@@H](Cc2ccc(O)cc2)C(=O)N[C@@](C)(C(C)C)C(=O)N[C@@H]([C@@H](C)O)C(=O)N1 [Compound 189] (Ac-C[Tle]YPT[Trp(7-aza)][Aib]AY[αMeV]T[dC]-NHMe; linker 1-12 via mXylylene) | 21000 to 50000 | 1000 to 21000 |
| CC(=O)N[C@H]1CSCc2cccc(c2)CSC[C@@H](C(N)=O)NC(=O)[C@H]([C@@H](C)O)NC(=O)[C@](C)(C(C)C)NC(=O)[C@H](Cc2ccc(O)cc2)NC(=O)[C@H](C)NC(=O)C2(CCOCC2)NC(=O)[C@H](Cc2c[nH]c3ncccc23)NC(=O)[C@H]([C@@H](C)O)NC(=O)[C@@H]2CCCN2C(=O)[C@H](Cc2ccc(O)cc2)NC(=O)[C@H](C(C)(C)C)NC1=O [Compound 181] (Ac-C[Tle]YPT[Trp(7-aza)][Thp]AY[αMeV]TC-NH2; linker 1-12 via mXylylene) | 21000 to 50000 | 1000 to 21000 |
| CCC[C@@H]1NC(=O)[C@H](Cc2ccc(O)cc2)NC(=O)[C@H](CCC(=O)O)N(C)C(=O)[C@H](CCC)NC(=O)[C@H](Cc2c[nH]c3ncccc23)NC(=O)[C@H]([C@@H](C)O)NC(=O)[C@H](Cc2c[nH]cn2)NC(=O)[C@H](Cc2ccc(O)cc2)NC(=O)[C@H](C(C)(C)C)NC(=O)CCSCc2cccc(c2)CSC[C@@H](C(N)=O)NC(=O)[C@H]([C@@H](C)O)NC1=O [Compound 208] ([Mpa][Tle]YHT[Trp(7-aza)][Nva][NMeE]Y[Nva]TC-NH2; linker 1-12 via mXylylene) | 50000 to 100000 | 50000 to 100000 |
| CCC[C@@H]1NC(=O)[C@H](Cc2c[nH]c3ncccc23)NC(=O)[C@H]([C@@H](C)O)NC(=O)[C@H](Cc2ccncc2)NC(=O)[C@H](Cc2ccc(O)cc2)NC(=O)[C@H](C(C)(C)C)NC(=O)CCSCc2cccc(c2)CSC[C@@H](C(N)=O)NC(=O)[C@H]([C@@H](C)O)NC(=O)[C@H](CCC)NC(=O)[C@H](Cc2ccc(O)cc2)NC(=O)[C@H](CCC(=O)O)NC1=O [Compound 112] ([Mpa][Tle]Y[4Pal]T[Trp(7-aza)][Nva]EY[Nva]TC-NH2; linker 1-12 via mXylylene) | 100 to 1000 | 100 to 1000 |
| CCC[C@@H]1NC(=O)[C@H](Cc2ccc(O)cc2)NC(=O)[C@H](CCC(=O)O)NC(=O)[C@H](CCC)NC(=O)[C@H](Cc2c[nH]c3ncccc23)NC(=O)[C@H]([C@@H](C)O)NC(=O)[C@H](Cc2c[nH]cn2)NC(=O)[C@H](Cc2ccc(O)cc2)NC(=O)[C@H](C(C)(C)C)NC(=O)CCSCc2cccc(c2)CSC[C@@H](C(N)=O)NC(=O)[C@H](Cc2c[nH]cn2)NC1=O [Compound 247] ([Mpa][Tle]YHT[Trp(7-aza)][Nva]EY[Nva]HC-NH2; linker 1-12 via mXylylene) | 100 to 1000 | 1000 to 21000 |
| C=CCCC[C@]1(C)NC(=O)[C@H](CCC)NC(=O)[C@H](Cc2ccc(O)cc2)NC(=O)[C@H](C)NC(=O)C(C)(C)NC(=O)[C@H](Cc2c[nH]c3ncccc23)NC(=O)[C@H]([C@@H](C)O)NC(=O)[C@@H]2CCCN2C(=O)[C@H](Cc2ccc(O)cc2)NC(=O)[C@H](C(C)(C)C)NC(=O)[C@@H](NC(C)=O)CCCC(=O)NCCCC[C@@H](C(N)=O)NC1=O [Compound 053] (Ac-[Aad][Tle]YPT[Trp(7-aza)][Aib]AY[Nva][S5]K-NH2; lactam 1-12) | 21000 to 50000 | 1000 to 21000 |
| CCC[C@H](NC(=O)[C@@H](NC(=O)[C@@H](NC(=O)[C@H](Cc1ccc(O)cc1)NC(=O)[C@@H]1CSCc2cccc(n2)CSC[C@H](NC(=O)[C@@H](NC(=O)[C@H](CCC)NC(=O)[C@H](CCCCN)NC(C)=O)[C@@H](C)CC)C(=O)N[C@@H](Cc2ccc(O)cc2)C(=O)NCC(=O)NCC(=O)N[C@@H](CC(=O)O)C(=O)N1)[C@@H](C)CC)[C@@H](C)CC)C(N)=O [Compound 055] (Ac-K[Nva]ICYGGDCYII[Nva]-NH2; linker 4-9 via Pyridine(2,6-diCH2)) | 100 to 1000 | 1 to 100 |
